Experimental data reported in patent publication US7799775B2, “Pyrimidine derivatives” (ASKA Pharmaceutical Co., Ltd., priority 2004, dated 2010).
Structures can show the parent of a compound that is named as a salt.

Assays:
[1] = molecular target: T1, human 5-HT3 receptor (Homo sapiens, UniProt P46098); assay: Measurement of affinity to human 5-HT3 receptor (in vitro), [3H]BRL-43694 binding; conditions: test compound 100 nmols/L, [3H]BRL-43694 0.5 nmols/L, HEK-293 cell membrane expressing human 5-HT3 receptor; for inhibition at 0.1 µM: read-out: Percent Inhibition (%) on Each Receptor's Binding at 10^−7M, 5-HT3
T1 construct: purchased BIOLINKS K.K; host or cells: HEK-293 cells (membrane preparation)
T1 sequence (P46098 24-478): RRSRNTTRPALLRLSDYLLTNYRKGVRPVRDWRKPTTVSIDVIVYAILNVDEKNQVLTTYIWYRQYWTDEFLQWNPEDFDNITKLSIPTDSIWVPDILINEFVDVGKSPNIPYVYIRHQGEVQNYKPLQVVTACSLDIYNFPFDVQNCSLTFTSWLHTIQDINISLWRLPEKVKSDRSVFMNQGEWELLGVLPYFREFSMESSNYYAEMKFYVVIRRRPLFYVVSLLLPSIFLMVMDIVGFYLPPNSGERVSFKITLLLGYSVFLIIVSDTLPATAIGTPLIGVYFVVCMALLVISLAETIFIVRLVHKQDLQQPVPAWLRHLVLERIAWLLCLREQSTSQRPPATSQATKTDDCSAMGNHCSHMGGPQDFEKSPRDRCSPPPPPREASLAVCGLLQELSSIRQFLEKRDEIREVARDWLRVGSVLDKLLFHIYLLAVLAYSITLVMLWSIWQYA
Protocol: (2) Measurement of Affinity of Each Test Compound to Human 5-HT3 Receptor (in Vitro):
HEK-293 cell membrane sample in which human 5-HT3 receptor was expressed (purchased from BIOLINKS K.K.) 0.05 mL (about 50 microassay) was added to 24.95 mL of incubation buffer solution B (an aqueous solution of a mixture of 50 mmols/L of Tris-hydrochloric acid, 5 mmols/L of magnesium chloride and 1 mmol/L of EDTA, whose pH was adjusted to 7.5 at 25° C. with 1N-aqueous sodium hydroxide solution) and homogenized, to provide a membrane sample suspension B. Separately, each test compound was made into 270 μmols/L of DMSO solution and diluted to a prescribed concentration with the incubation buffer solution B to provide a compound solution.
A piece of polypropylene tube was charged with 20 μL of [^3H]BRL-43694 (purchased from Daiichi Pure Chemicals Co., Ltd.) (The concentration of [^3H]BRL-43694 had been advancedly adjusted to render its concentration in the reaction mixture to 0.5 nmols/L.) and 20 μL of one of the compound solutions. Further 500 μL of the membrane sample suspension B was added into the tube, followed by 60 minutes' incubation at 25° C. The reaction was terminated by rapid filtration of the reaction mixture through GF/B filter which had been advancedly immersed in a solution formed by adding to the incubation buffer solution B polyethyleneimine to a concentration of 0.5%, using Brandel cell harvester. Then the filter was washed with about 5 mL of 50 mmols/L of Tris-hydrochloric acid which had been cooled to 4° C. The filter was once again washed after similar operation.
(§1) Residual radioactivity on the filter was measured with liquid scintillation counter (ALOKA CO., LTD. LSC-5100). Percent inhibition (%) of each test compound to binding of [^3H]BRL-43694 to 5-HT3 receptor at a concentration of 0.5 nmols/L, i.e., affinity of each test compound to 5-HT3 receptor, can be calculated according to the following expression. The ratio of non-specific binding was calculated by measuring the radioactivity in case of using tropisetron: (ICS 205-930) at a concentration of 10 μmols/L, with which value the measured value of each test compound was compensated.
(§2) Affinity of each test compound to 5-HT1A receptor and 5-HT3 receptor at a concentration of 100 nmols/L were as shown in the following Tables A-1 and A-2. BRL-43694 and tropisetron (ICS 205-930), which were used in measuring affinity of those compounds to 5-HT3 receptor, have the following structures: […]

[2] = molecular target: T2, human 5-HT1A receptor (Homo sapiens, UniProt P08908); assay: Affinity measurement of the compounds to human 5-HT1A receptor (in vitro), [3H]8-OH-DPAT binding; conditions: test compound 100 nmols/L, [3H]8-OH-DPAT 0.25 nmols/L, CHO cell membrane expressing human 5-HT1A receptor; for inhibition at 0.1 µM: read-out: Percent Inhibition (%) on Each Receptor's Binding at 10^−7M, 5-HT1A
T2 construct: purchased Packard Bioscience; host or cells: CHO cells (membrane preparation)
T2 sequence (P08908 1-422): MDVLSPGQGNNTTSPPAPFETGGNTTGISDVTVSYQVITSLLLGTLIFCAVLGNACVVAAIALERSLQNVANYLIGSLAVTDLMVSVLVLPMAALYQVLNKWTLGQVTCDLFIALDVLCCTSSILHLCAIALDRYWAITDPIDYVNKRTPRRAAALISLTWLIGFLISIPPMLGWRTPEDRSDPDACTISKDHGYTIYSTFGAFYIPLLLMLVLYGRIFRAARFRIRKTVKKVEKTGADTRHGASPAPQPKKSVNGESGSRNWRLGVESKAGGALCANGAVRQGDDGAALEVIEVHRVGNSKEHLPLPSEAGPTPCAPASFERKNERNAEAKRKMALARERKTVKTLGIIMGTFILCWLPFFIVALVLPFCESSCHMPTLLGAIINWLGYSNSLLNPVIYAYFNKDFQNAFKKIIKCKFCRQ
Protocol: (1) Affinity Measurement of the Compounds to Human 5-HT1A Receptor (in Vitro)
CHO cell membrane sample in which human 5-HT1A receptor was expressed (purchased from Packard Bioscience) 0.25 mL (about 50 units) was added to 24.75 mL of incubation buffer solution A (an aqueous solution of a mixture of 50 mmols/L of Tris-hydrochloric acid, 10 mmols/L of magnesium sulfate, 0.5 mmols/L of EDTA and 0.1% ascorbic acid, whose pH was adjusted to 7.4 at 27° C. with 1N-aqueous sodium hydroxide solution), and labeled as membrane sample suspension A. Separately, each test compound was made into 270 μmols/L DMSO solution and diluted to a prescribed concentration with the incubation buffer solution A, to provide a compound solution.
A piece of polypropylene tube was charged with 20 μL of [^3H]8-OH-DPAT (8-hydroxy-2-(di-n-propylamino)tetralin; purchased from Daiichi Pure Chemicals Co., Ltd.) (The concentration of the [^3H]8-OH-DPAT had been advancedly adjusted to render its concentration in the reaction mixture to 0.25 nmols/L) and 20 μL of one of the compound solutions. Further 500 μL of the membrane sample suspension A was added into the tube, followed by 60 minutes' incubation at 27° C. The reaction was terminated by rapid filtration of the reaction mixture through GF/C filter which had been advancedly immersed in a solution formed by adding to the incubation buffer solution A polyethyleneimine to a concentration of 0.3%, using Brandel cell harvester. Then the filter was washed with about 5 mL of 50 mmols/L of Tris-hydrochloric acid which had been cooled to 4° C. The filter was once again washed after similar operation.
as §1, with “(Aloka Co.,” for “(ALOKA CO., LTD.”, “[^3H]8-OH-DPAT” for “[^3H]BRL-43694”, “5-HT1A” for “5-HT3”, “0.25” for “0.5”, “8-OH-DPAT” for “tropisetron: (ICS 205-930)”
as §2

inhibition at 0.1 µM [1] [%] | inhibition at 0.1 µM [2] [%] | Percent Inhibition (%) on Each Receptor's Binding at 10^−7M, 5-HT3 [1] [%] | Percent Inhibition (%) on Each Receptor's Binding at 10^−7M, 5-HT1A [2] [%] | SMILES
42.2 | 94.8 | – | – | COc1ccc2ccnc(N3CCN(Cc4ccc5c(c4)OCO5)CC3)c2c1 [Production Example 71, 1-(4-benzo[1,3]dioxol-5-ylmethylpiperazin-1-yl)-7-methoxyisoquinoline]
39.3 | 92.4 | – | – | Nn1c(NCCCN2CCN(c3ccc4ccccc4n3)CC2)nc2c(c1=O)CCCC2 [Example 6-2, 3-amino-2-[3-(4-quinolin-2-ylpiperazin-1-yl)propylamino]-5,6,7,8-tetrahydro-3H-quinazolin-4-one]
16.7 | 77.8 | – | – | CC(CCCc1nc2c(c(=O)n1C)CCCC2)N1CCN(c2ccc3ccccc3n2)CC1 (centres unmarked) [Example 7-14, 3-methyl-2-[4-(4-quinolin-2-ylpiperazin-1-yl)pentyl]-5,6,7,8-tetrahydro-3H-quinazolin-4-one]
82.6 | 85 | – | – | Cc1sc2nc(SCCCN3CCN(c4nc5ccccc5n5cccc45)CC3)n(N)c(=O)c2c1C [Example 1-5, 3-amino-5,6-dimethyl-2-[3-(4-pyrrolo[1,2-a]quinoxalin-4-ylpiperazin-1-yl)propylthio]-3H-thieno[2,3-d]pyrimidin-4-one]
35 | 62.1 | – | – | CC(C)n1c(CCCCN2CCN(c3ccc4ccccc4n3)CC2)nc2ccccc2c1=O [Example 7-15, 3-isopropyl-2-[4-(4-quinolin-2-ylpiperazin-1-yl)butyl]-3H-quinazolin-4-one]
24.7 | 45 | – | – | O=c1c2c(nc(CCCCN3CCN(c4nc5ccccc5s4)CC3)n1Cc1ccccc1)CCCC2 [Example 7-11, 2-[4-(4-benzothiazol-2-ylpiperazin-1-yl)butyl]-3-benzyl-5,6,7,8-tetrahydro-3H-quinazolin-4-one]
6.3 | 53 | – | – | Cn1c(CCCN2CCN(c3ccc4ccccc4n3)CC2)nc2c(c1=O)CCCC2 [Example 7-5, 3-methyl-2-[3-(4-quinolin-2-ylpiperazin-1-yl)propyl]-5,6,7,8-tetrahydro-3H-quinazolin-4-one]
– | – | 93.9 | 58.2 | COc1cc(N2CCN(CCCCc3nc4ccccc4c(=O)n3N)CC2)nc2ccccc12 [Example 4-22, 3-amino-2-[4-(4-methoxyquinolin-2-yl)piperazin-1-yl]butyl-3H-quinazolin-4-one]
87.7 | 90.4 | – | – | CC1CCCc2c1nc(CCCCN1CCN(c3ccc4ccccc4n3)CC1)n(N)c2=O (centres unmarked) [Example 4-36, 3-amino-8-methyl-2-[4-(4-quinolin-2-ylpiperazin-1-yl)butyl]-5,6,7,8-tetrahydro-3H-quinazolin-4-one]
1.9 | 50.6 | – | – | COc1ccc(-n2c(CCCCN3CCN(c4ccc5ccccc5n4)CC3)nc3ccccc3c2=O)cc1 [Example 7-17, 3-(4-methoxyphenyl)-2-[4-(4-quinolin-2-ylpiperazin-1-yl)butyl]-3H-quinazolin-4-one]
95 | 97.4 | – | – | CCn1c(CCCCN2CCN(c3ccc4ccccc4n3)CC2)nc2ccccc2c1=O [Example 7-21, 3-2-[4-(4-quinolin-2-ylpiperazin-1-yl)butyl]-3H-quinazolin-4-one]
74.5 | 76 | – | – | Cc1cc(N2CCN(CCCNc3nc4c(c(=O)[nH]3)CCCC4)CC2)nc2ccccc12 [Example 5-3, 2-[3-[4-(4-methylquinolin-2-yl)piperazin-1-yl]propylamino]-5,6,7,8-tetrahydro-3H-quinazolin-4-one]
99.7 | 97.5 | – | – | Cn1c(CCCCN2CCN(c3ccc4ccccc4n3)CC2)nc2ccc(Cl)cc2c1=O [Example 7-25, 6-chloro-3-methyl-2-[4-(4-quinolin-2-ylpiperazin-1-yl)butyl]-3H-quinazolin-4-one]

SMILES | inhibition at 0.1 µM [1] [%] | inhibition at 0.1 µM [2] [%] | Percent Inhibition (%) on Each Receptor's Binding at 10^−7M, 5-HT3 [1] [%] | Percent Inhibition (%) on Each Receptor's Binding at 10^−7M, 5-HT1A [2] [%]
CN1CCN(c2nccc3cccnc23)CC1 [Production Example 23, 8-(4-methylpiperazin-1yl)[1,7]naphthyridine] | 85.8 | 83.2 | – | –
CSc1ccc2ccnc(N3CCN4CCC[C@H]4C3)c2c1 [Production Example 82] | 90.3 | 99.3 | – | –
CN1CCN(c2nc(Cl)cc3ccccc23)CC1 [Production Example 16, 3-chloro-1-(4-methylpiperazin-1-yl)isoquinoline dihydrochloride] | 99.2 | 61.1 | – | –
Oc1ccc2ccnc(N3CCN4CCC[C@H]4C3)c2c1 [Production Example 85] | 98.9 | 99.9 | – | –
Clc1ccc2c(N3CCNCC3)nccc2c1 [Production Example 57, 6-chloro-1-piperazin-1-ylisoquinoline] | 96.5 | 88.9 | – | –
COc1ccc2ccnc(N3CCN4CCC[C@@H]4C3)c2c1 [Production Example 77, 1-((8aR)-octahydropyrrolo[1,2-a]pyrazin-2-yl)-7-methoxyisoquinoline] | 97.9 | 98.9 | – | –
